From patent US20110257208A1, “COMPOUNDS USEFUL AS FAAH MODULATORS AND USES THEREOF” (priority 2008, published 2011) come the findings set out here.

Each structure is given as a SMILES string. Some results are limits rather than exact numbers.

This assay concerns the target T1, hFAAH (Homo sapiens, UniProt O00519).
T1 construct: expressed in transfected cells; host or cells: HEK293-TRex (Invitrogen) stably transfected with hFAAH in the pcDNA5-Tet-off vector, or T84 human colon epithelial cells (endogenous hFAAH); used as a microsomal preparation
T1 sequence (O00519 1-579): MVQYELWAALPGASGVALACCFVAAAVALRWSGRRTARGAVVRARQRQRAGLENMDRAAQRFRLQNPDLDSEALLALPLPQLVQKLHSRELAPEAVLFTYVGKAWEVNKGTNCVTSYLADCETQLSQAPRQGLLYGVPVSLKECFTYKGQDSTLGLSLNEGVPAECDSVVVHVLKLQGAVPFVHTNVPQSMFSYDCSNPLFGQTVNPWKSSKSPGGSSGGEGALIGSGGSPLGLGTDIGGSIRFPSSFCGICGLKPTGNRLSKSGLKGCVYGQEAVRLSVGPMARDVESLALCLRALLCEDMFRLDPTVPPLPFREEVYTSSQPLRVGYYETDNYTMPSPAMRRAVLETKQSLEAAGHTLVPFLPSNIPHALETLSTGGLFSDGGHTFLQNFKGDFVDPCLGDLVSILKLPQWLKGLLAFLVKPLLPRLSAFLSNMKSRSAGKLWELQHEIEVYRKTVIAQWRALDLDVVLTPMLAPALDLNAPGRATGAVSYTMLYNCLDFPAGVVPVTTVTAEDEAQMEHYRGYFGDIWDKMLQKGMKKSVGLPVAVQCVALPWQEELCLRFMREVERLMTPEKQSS
Kind of assay: Fluorimetric assay with hFAAH microsomes (enzymatic, fluorescence based). Format: biochemical. Particulars: compound at 1 uM, AA-AMC substrate. How it is done: Human cell line T84 (human colon epithelial cells), which expresses endogenous hFAAH, or HEK293-TRex cells (Invitrogen) stably transfected with hFAAH in the pcDNA5-Tet-off vector are cultured in medium containing DMEM, 10% FBS penicillin/streptomycin, glutamax, 200 μg/ml hygromycin and 0.5 μg/ml blasticidin. Cell collection is done 24 h after induction with doxycycline by first washing the cells with cold PBS and then incubating them with Versene before centrifugation. Cell pellets are then stored at −80° C. until needed. For homogenization, the cell pellets are thawed on ice […] and resuspended in homogenization buffer (50 mM HEPES (pH 7.4), 1 mM EDTA, 1 μM Pepstatin A, 100 μM Leupeptin, 0.1 mg/mL aprotinin). Cell suspensions are then homogenized on ice using the Polytron 1200 C at setting 6 for three 30-second intervals with 30-second rests. The suspension is centrifuged at 1000 g for 10 minutes at 4° C. and the supernatant is collected and further centrifuged at 24000 rpm for 30 minutes at 4° C. using an ultracentrifuge. Pellets are resuspended by adding in cold microsomal buffer (50 mM HEPES (pH 7.4) and 1 mM EDTA) and sheared through a 23-gauge needle five times, keeping the suspension on ice. Protein concentrations are determined using the BCA assay and aliquoted preparations are stored at −80° C. until needed.
Compound potency against hFAAH is determined using an enzymatic assay with a fluorescence readout. Briefly, experiments were carried out in a 96-well plate format (Corning Costar, # 3370) with a total well volume of 160 μL with components added in the following order: assay buffer (50 mM HEPES (pH 7.4), 1 mM EDTA, 1.4 mg/mL BSA), compound solutions (7 different concentrations per compound in duplicate), microsomal enzyme preparation (10 μg per well) and substrate [AA-AMC (arachadonyl 7-amino 4-methyl coumarin amide), 2 μM]. After a brief shaking, a kinetic read of the plate is obtained using a Tecan Safire II in kinetic mode for 275 cycles with excitation and emission wavelengths of 355 and 460 nm, respectively. Raw data is then processed and analyzed using Assay Explorer and GraphPad Prism.
The following compounds have been or can be prepared according to the methods of the invention. An enzymatic (fluorescence based) assay is performed as described above. In Table 1, activity of each compound is expressed as follows: • ++++ % Inhibition >75% • +++ % Inhibition >50% • ++ % Inhibition >25% • + % Inhibition <25%

The inhibition is the percentage by which the read-out fell short of the control. Lower therefore signals a response near the control. In turn, `c1ccc2ncc(Nc3ncnc4c3CN(CC3CCSCC3)C4)cc2c1` [Compound 18, Quinolin-3-yl-[6-(tetrahydro-thiopyran-4-ylmethyl)-6,7-dihydro-5H-pyrrolo[3,4-d]pyrimidin-4-yl]-amine] had an inhibition at 1 µM above 75%.

Consider `CC(C)(C)CN1Cc2ncnc(Nc3cnc4ccccc4c3)c2C1` [Compound 11, [6-(2,2-Dimethyl-propyl)-6,7-dihydro-5H-pyrrolo[3,4-d]pyrimidin-4-yl]-quinolin-3-yl-amine], for which the inhibition at 1 µM is above 25%.

Compound `FC(F)(F)Oc1ccccc1CN1Cc2ncnc(Nc3cnc4ccccc4c3)c2C1` [Compound 98, Quinolin-3-yl-[6-(2-trifluoromethoxy-benzyl)-6,7-dihydro-5H-pyrrolo[3,4-d]pyrimidin-4-yl]-amine] yielded an inhibition at 1 µM above 75%.

`Cc1ccccc1S(=O)(=O)N1Cc2ncnc(Nc3cnc4ccccc4c3)c2C1` [Compound 59, Quinolin-3-yl-[6-(toluene-2-sulfonyl)-6,7-dihydro-5H-pyrrolo[3,4-d]pyrimidin-4-yl]-amine]: the inhibition at 1 µM is above 75%.

In the case of `CCN1Cc2ncnc(Nc3cnc4ccccc4c3)c2C1` [Compound 3, (6-Ethyl-6,7-dihydro-5H-pyrrolo[3,4-d]pyrimidin-4-yl)-quinolin-3-yl-amine], the inhibition at 1 µM was below 25%.

The compound `CCCCN1Cc2ncnc(Nc3cnc4ccccc4c3)c2C1` [Compound 6, (6-Butyl-6,7-dihydro-5H-pyrrolo[3,4-d]pyrimidin-4-yl)-quinolin-3-yl-amine] showed an inhibition at 1 µM above 25%.

Turning to `c1ccc(CCN2Cc3ncnc(Nc4cnc5ccccc5c4)c3C2)cc1` [Compound 22, (6-Phenethyl-6,7-dihydro-5H-pyrrolo[3,4-d]pyrimidin-4-yl)-quinolin-3-yl-amine], the inhibition at 1 µM is above 75%.

`c1ccc2ncc(Nc3ncnc4c3CN(C3COC3)C4)cc2c1` [Compound 44, (6-Oxetan-3-yl-6,7-dihydro-5H-pyrrolo[3,4-d]pyrimidin-4-yl)-quinolin-3-yl-amine] registered an inhibition at 1 µM below 25%.

For the compound `Cc1cccc(C)c1CN1Cc2ncnc(Nc3cnc4ccccc4c3)c2C1` [Compound 88, [6-(2,6-Dimethyl-benzyl)-6,7-dihydro-5H-pyrrolo[3,4-d]pyrimidin-4-yl]-quinolin-3-yl-amine], the inhibition at 1 µM is above 50%.

In turn, `Cc1ccoc1CN1Cc2ncnc(Nc3cnc4ccccc4c3)c2C1` [Compound 86, [6-(3-Methyl-furan-2-ylmethyl)-6,7-dihydro-5H-pyrrolo[3,4-d]pyrimidin-4-yl]-quinolin-3-yl-amine] showed an inhibition at 1 µM above 75%.

`COC(=O)c1ccc(S(=O)(=O)N2Cc3ncnc(Nc4cnc5ccccc5c4)c3C2)o1` [Compound 68, 5-[4-(Quinolin-3-ylamino)-5,7-dihydro-pyrrolo[3,4-d]pyrimidine-6-sulfonyl]-furan-2-carboxylic acid methyl ester]: the inhibition at 1 µM was above 75%.

`COc1ccccc1S(=O)(=O)N1Cc2ncnc(Nc3cnc4ccccc4c3)c2C1` [Compound 73, [6-(2-Methoxy-benzenesulfonyl)-6,7-dihydro-5H-pyrrolo[3,4-d]pyrimidin-4-yl]-quinolin-3-yl-amine] had an inhibition at 1 µM above 25%.

`Clc1ccccc1CN1Cc2ncnc(Nc3cnc4ccccc4c3)c2C1` [Compound 84, [6-(2-Chloro-benzyl)-6,7-dihydro-5H-pyrrolo[3,4-d]pyrimidin-4-yl]-quinolin-3-yl-amine] showed an inhibition at 1 µM above 75%.

As to `c1ccc2ncc(Nc3ncnc4c3CN(CC3CCOCC3)C4)cc2c1` [Compound 33, Quinolin-3-yl-[6-(tetrahydro-pyran-4-ylmethyl)-6,7-dihydro-5H-pyrrolo[3,4-d]pyrimidin-4-yl]-amine], the inhibition at 1 µM is above 75%.

Take `Cc1ccc(C)c(CN2Cc3ncnc(Nc4cnc5ccccc5c4)c3C2)c1` [Compound 89, [6-(2,5-Dimethyl-benzyl)-6,7-dihydro-5H-pyrrolo[3,4-d]pyrimidin-4-yl]-quinolin-3-yl-amine]: the inhibition at 1 µM was above 75%.

For `CCOc1ccccc1CN1Cc2ncnc(Nc3cnc4ccccc4c3)c2C1` [Compound 100, [6-(2-Ethoxy-benzyl)-6,7-dihydro-5H-pyrrolo[3,4-d]pyrimidin-4-yl]-quinolin-3-yl-amine], the inhibition at 1 µM is above 75%.

In turn, `CC(C)C(C)N1Cc2ncnc(Nc3cnc4ccccc4c3)c2C1` (stereo not shown) [Compound 32, [6-(1,2-Dimethyl-propyl)-6,7-dihydro-5H-pyrrolo[3,4-d]pyrimidin-4-yl]-quinolin-3-yl-amine] displayed an inhibition at 1 µM above 25%.

`c1ccc(C2CC2)c(CN2Cc3ncnc(Nc4cnc5ccccc5c4)c3C2)c1` [Compound 112, [6-(2-Cyclopropyl-benzyl)-6,7-dihydro-5H-pyrrolo[3,4-d]pyrimidin-4-yl]-quinolin-3-yl-amine]: the inhibition at 1 µM is above 75%.

Compound `Cc1csc(CN2Cc3ncnc(Nc4cnc5ccccc5c4)c3C2)n1` [Compound 77, [6-(4-Methyl-thiazol-2-ylmethyl)-6,7-dihydro-5H-pyrrolo[3,4-d]pyrimidin-4-yl]-quinolin-3-yl-amine] yielded an inhibition at 1 µM above 50%.

With `Cc1nc(C)c(C(=O)N2Cc3ncnc(Nc4cnc5ccccc5c4)c3C2)s1` [Compound 49, (2,4-Dimethyl-thiazol-5-yl)-[4-(quinolin-3-ylamino)-5,7-dihydro-pyrrolo[3,4-d]pyrimidin-6-yl]-methanone], the inhibition at 1 µM was above 50%.

In turn, `c1ccc2ncc(Nc3ncnc4c3CN(CC3CCOC3)C4)cc2c1` (stereo not shown) [Compound 13, Quinolin-3-yl-[6-(tetrahydro-furan-3-ylmethyl)-6,7-dihydro-5H-pyrrolo[3,4-d]pyrimidin-4-yl]-amine] yielded an inhibition at 1 µM above 25%.

`COc1cccc(CN2Cc3ncnc(Nc4cnc5ccccc5c4)c3C2)c1` [Compound 106, [6-(3-Methoxy-benzyl)-6,7-dihydro-5H-pyrrolo[3,4-d]pyrimidin-4-yl]-quinolin-3-yl-amine] showed an inhibition at 1 µM above 75%.

In turn, `O=S(=O)(CCc1ccccc1)N1Cc2ncnc(Nc3cnc4ccccc4c3)c2C1` [Compound 82, [6-(2-Phenyl-ethanesulfonyl)-6,7-dihydro-5H-pyrrolo[3,4-d]pyrimidin-4-yl]-quinolin-3-yl-amine] returned an inhibition at 1 µM below 25%.

In the case of `c1ccc2ncc(Nc3ncnc4c3CN(CC3CCCCC3)C4)cc2c1` [Compound 2, (6-Cyclohexylmethyl-6,7-dihydro-5H-pyrrolo[3,4-d]pyrimidin-4-yl)-quinolin-3-yl-amine], the inhibition at 1 µM is above 75%.

For the compound `O=S(=O)(c1ccccc1OC(F)(F)F)N1Cc2ncnc(Nc3cnc4ccccc4c3)c2C1` [Compound 70, Quinolin-3-yl-[6-(2-trifluoromethoxy-benzenesulfonyl)-6,7-dihydro-5H-pyrrolo[3,4-d]pyrimidin-4-yl]-amine], the inhibition at 1 µM is above 25%.

With `CCCC(C)N1Cc2ncnc(Nc3cnc4ccccc4c3)c2C1` (stereo not shown) [Compound 42, [6-(1-Methyl-butyl)-6,7-dihydro-5H-pyrrolo[3,4-d]pyrimidin-4-yl]-quinolin-3-yl-amine], the inhibition at 1 µM was above 25%.

On to `CC(C)CN1Cc2ncnc(Nc3cnc4ccccc4c3)c2C1` [Compound 7, (6-Isobutyl-6,7-dihydro-5H-pyrrolo[3,4-d]pyrimidin-4-yl)-quinolin-3-yl-amine], for which the inhibition at 1 µM was above 25%.

`O=S(=O)(c1ccccc1)N1Cc2ncnc(Nc3cnc4ccccc4c3)c2C1` [Compound 65, (6-Benzenesulfonyl-6,7-dihydro-5H-pyrrolo[3,4-d]pyrimidin-4-yl)-quinolin-3-yl-amine] registered an inhibition at 1 µM above 25%.
